Source: patent US4130647A, “Methods for treating congestive heart failure and ischemic heart disease” (priority 1977, dated 1978)
“And” between values parts separate entries of the source, which are not always exact repeats. Equal entries are not always repeated.

How the values were obtained:
[1] = tested on: patients with chronic left sided congestive heart failure; experiment: Improvement of symptoms and roentgenographic pulmonary venous congestion, trimazosin (Example 3); type: in vivo, human
Description: (§1) After baseline measurements, all 16 patients received one capsule of single-blind placebo three times daily for two weeks. The patients then received in a double-blind, randomized study trimazosin or placebo for six weeks. Eight patients received one placebo capsule three times daily for weeks one and two, two placebo capsules three times daily for weeks three and four, and three placebo capsules three times daily for weeks five and six of the double-blind period. Seven patients received one 50 mg. trimazosin capsule three times daily for weeks one and two, two 50 mg. trimazosin capsules three times daily for weeks three and four, and three 50 mg. trimazosin capsules three times daily for weeks five and six of the double-blind period. One patient (patient number five on trimazosin) received one 50 mg. trimazosin capsule three times daily for 32 days. Their trimazosin dose was not increased after two weeks of this dose because their standing systolic blood pressure was 104/70 mm. Hg.
The patients were seen by one of the investigators, questioned for symptoms, and given a physical examination in the baseline period, at the end of two weeks of single-blind placebo, and at the end of weeks one, two, three, four, five, and six on double-blind medication. […]
The data listed in Tables 1-4 were analyzed using Student's t test for independent means. […]

[2] = tested on: patients with chronic left sided congestive heart failure; experiment: Adverse effects of trimazosin (Example 3); type: in vivo, human
Protocol: The patients then received in a double-blind, randomized study trimazosin or placebo for six weeks. Eight patients received one placebo capsule three times daily for weeks one and two, two placebo capsules three times daily for weeks three and four, and three placebo capsules three times daily for weeks five and six of the double-blind period. Seven patients received one 50 mg. trimazosin capsule three times daily for weeks one and two, two 50 mg. trimazosin capsules three times daily for weeks three and four, and three 50 mg. trimazosin capsules three times daily for weeks five and six of the double-blind period. One patient (patient number five on trimazosin) received one 50 mg. trimazosin capsule three times daily for 32 days. […] The patients were seen by one of the investigators, questioned for symptoms, and given a physical examination in the baseline period, at the end of two weeks of single-blind placebo, and at the end of weeks one, two, three, four, five, and six on double-blind medication. A standard 12-lead electrocardiogram and PA and lateral chest roentgenograms were taken in the baseline period, at the end of two weeks of single-blind placebo, and at the end of three weeks and six weeks on double-blind medication.

[3] = tested on: norepinephrine; details: in vivo; cited from earlier work
[4] = tested on: adrenergic; experiment: Adrenergic blocking activity of trimazosin
Description: This observation might have important clinical implications since other vasodilators may be contraindicated in patients with compensated ischemic heart disease who may develop tachycardia and increased myocardial oxygen requirements [Sonnenblick, et al., N. Engl. J. Med., 285, 688 (1971)] in response to vasodilators.

[5] = tested on: patients with chronic left sided congestive heart failure; experiment: Treadmill exercise duration until marked dyspnea, trimazosin (Example 3); type: in vivo, human; details: for improvement in exercise duration vs. placebo: p<0.025
Description: Sixteen men between 41 and 66 years of age with chronic left sided congestive heart failure were subjects. Twelve patients had coronary heart disease with an old healed myocardial infarction, one patient had alcoholic cardiomyopathy, and three patients had idiopathic cardiomyopathy as the cause of their chronic heart failure. All 16 patients had cardiomegaly on physical examination and on their chest roentgenogram, a left ventricular third heart sound heard by auscultation, and evidence of pulmonary venous congestion on their chest roentgenogram. Their baseline standing blood pressures ranged between 114 and 150 mm. Hg. systolic and 72 and 100 mm. Hg. diastolic.
The patients received digitalis and diuretic therapy for 6 to 48 months. Their dose of digitalis and diuretic was not changed during this study. Except for potassium chloride, no other medications were taken by any of the 16 patients during this study. All patients signed informed consent forms.
as §1
Two practice treadmill tests were performed by all patients prior to the baseline period. The patients performed a multi-stage uninterrupted treadmill exercise test until the onset of marked dyspnea in the baseline period, and approximately two hours after their morning dose of medication after two weeks of single-blind placebo, after three weeks of double-blindmedication, and after six weeks of double-blind medication. The patients exercised at a treadmill speed of 1.7 m.p.h. and a treadmill grade of 0% for the first 3 min., a treadmill speed of 1.7 m.p.h. and a treadmill grade of 10% for the next 3 min., at a treadmill speed of 2.5 m.p.h. and a treadmill grade of 12% for the third 3 min. period, and then at a treadmill speed of 3.4 m.p.h. and a treadmill grade of 14%.
The data listed in Tables 1-4 were analyzed using Student's t test for independent means. Fisher's exact test was used to analyze the data on improvement of symptoms and the data on changes in roentgenographic evidence of pulmonary venous congestion.

[6] = tested on: patients with essential hypertension; details: cited from earlier work
[7] = single oral doses of 50 to 150 mg.

## COc1cc2c(N)nc(N3CCN(C(=O)OCC(C)(C)O)CC3)nc2c(OC)c1OC [trimazosin, 2-hydroxy-2-methylpropyl 4-(4-amino-6,7,8-trimethoxy-2-quinazolinyl)-1-piperazinecarboxylate]
[1]; vs. none of eight on placebo, p=0.038
  disappearance of pulmonary venous congestion on chest roentgenogram: Four of the eight patients
[1]; vs. one of eight on placebo, p=0.020
  good or excellent improvement in symptoms: Six of the eight patients
[2]; 16 patients (trimazosin or placebo)
  adverse effects attributed to medication: No adverse effects attributed to medication occurred in any of the 16 patients
[2]; in vivo
  adverse effects such as systemic lupus erythematosus: has not been associated with adverse effects such as systemic lupus erythematosus
  reflex tachycardia: does not produce a reflex tachycardia
[2]; thirty-second day of trimazosin therapy
  event in patient number five: acute myocardial infarction with ventricular fibrillation
[2]; trimazosin 450 mg. daily
  side effects: without occurrence of any side effects
[3]
  digital vascular reactivity to norepinephrine infusion: decreased
  norepinephrine uptake and secretion: not affected
[4]
  adrenergic blocking activity: does not possess adrenergic blocking activity
[5]; 300 mg. daily (patient 5: 150 mg. daily), individual patients
  Double-blind trimazosin (3 weeks) exercise time: 180 s and 428 s and 398 s and 280 s and 298 s and 389 s and 476 s and 322 s
[5]; 450 mg. daily, individual patients
  Double-blind trimazosin (6 weeks) exercise time: 232 s and 295 s and 406 s and 435 s and 627 s and 527 s and 363 s
[5]; 3 weeks, 300 mg. daily (patient 5: 150 mg. daily), individual patients
  Change from average of baseline and placebo exercise times: +110%
[5]; 3 weeks, mean, baseline/placebo average 255.5
  Double-blind trimazosin (3 weeks) exercise time, mean: 346.4 s
[5]; 3 weeks
  improvement in exercise duration vs. placebo: significantly greater
[5]; 6 weeks, 450 mg. daily, individual patients
  Change from average of baseline and placebo exercise times: +136% and +122%
[5]; 6 weeks, 450 mg. daily, mean
  Double-blind trimazosin (6 weeks) exercise time, mean: 412.1 s
[5]; 6 weeks
  improvement in exercise duration vs. placebo: significantly greater
[6]; hypertensives without heart failure
  Heart Rate: does not increase heart rate
[6]; [7]
  blood pressure: significantly lower blood pressure
  effect on heart rate: No significant effects
  effect on plasma renin activity: No significant effects
  side effect: Mild transient dizziness
  time of peak effect: between one and four hours
  time until effect was apparent: ≤ 30 min
